Measurements from PMC10981695, “The thylakoid proton antiporter KEA3 regulates photosynthesis in response to the chloroplast energy status” (Nature Communications, 2024).

Experiments:
[1] = biological target: T1, RCT (regulatory C-terminus of KEA3, KEA3 AA495-776) (Arabidopsis thaliana, UniProt Q9M0Z3); experiment: temperature-related intensity change (TRIC), RED-tris-NTA labelled His-tag, one-site fit; assay type: binding
T1 sequence (Q9M0Z3 495-776): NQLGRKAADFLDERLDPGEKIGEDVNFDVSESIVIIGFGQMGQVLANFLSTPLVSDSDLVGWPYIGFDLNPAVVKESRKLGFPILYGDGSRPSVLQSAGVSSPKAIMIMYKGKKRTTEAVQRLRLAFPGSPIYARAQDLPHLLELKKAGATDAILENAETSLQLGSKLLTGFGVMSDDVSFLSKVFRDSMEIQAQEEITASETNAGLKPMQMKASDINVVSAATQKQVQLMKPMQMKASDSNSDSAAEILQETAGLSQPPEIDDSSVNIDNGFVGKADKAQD
Description: temperature-related intensity change (TRIC), RED-tris-NTA labelled His-tag, one-site fit on RCT (regulatory C-terminus of KEA3, KEA3 AA495-776)

[2] = biological target: T1, RCT (regulatory C-terminus of KEA3, KEA3 AA495-776); experiment: differential scanning fluorimetry (nanoDSF, intrinsic fluorescence); assay type: binding; settings: pH 8.0, PBS; 50 and 500 µM ligand
KEA3 = biological target: T2, KEA3 (Arabidopsis thaliana, UniProt Q9M0Z3); experiment: affinity pull-down with ATP-linked agarose beads, immunoblot; assay type: biochemical; settings: solubilized thylakoids; ATP immobilised via linker
T2 construct: native full-length KEA3 in detergent-solubilized wild-type thylakoid membranes, detected with specific KEA3 antibody
T2 sequence (Q9M0Z3 73-776): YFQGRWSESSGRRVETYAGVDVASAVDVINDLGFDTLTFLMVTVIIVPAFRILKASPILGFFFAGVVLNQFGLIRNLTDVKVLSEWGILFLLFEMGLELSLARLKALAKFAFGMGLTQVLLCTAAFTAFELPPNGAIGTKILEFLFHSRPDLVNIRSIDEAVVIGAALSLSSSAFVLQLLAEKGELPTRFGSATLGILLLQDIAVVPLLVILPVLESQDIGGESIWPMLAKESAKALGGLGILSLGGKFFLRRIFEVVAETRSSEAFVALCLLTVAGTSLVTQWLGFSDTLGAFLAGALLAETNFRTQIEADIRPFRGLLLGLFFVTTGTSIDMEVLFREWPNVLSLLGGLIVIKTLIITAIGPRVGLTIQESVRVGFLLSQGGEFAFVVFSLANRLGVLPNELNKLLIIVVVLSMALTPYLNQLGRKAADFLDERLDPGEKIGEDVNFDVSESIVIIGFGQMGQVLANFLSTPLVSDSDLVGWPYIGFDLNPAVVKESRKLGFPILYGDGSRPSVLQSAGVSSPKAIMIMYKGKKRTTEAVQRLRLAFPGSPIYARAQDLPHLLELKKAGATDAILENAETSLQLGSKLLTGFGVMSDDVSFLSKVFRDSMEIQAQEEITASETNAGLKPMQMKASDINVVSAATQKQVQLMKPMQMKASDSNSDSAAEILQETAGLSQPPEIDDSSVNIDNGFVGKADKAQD

Row | Kd [1] | Structure (SMILES) | ΔTM [2] | affinity pull-down with ATP-linked agarose beads, immunoblot (KEA3)
1 | 51 µM | Nc1ncnc2c1ncn2[C@@H]1O[C@H](COP(=O)(O)OP(=O)(O)O)[C@@H](O)[C@H]1O [ADP] | Addition of either ADP or ATP yielded a concentration-dependent increase in the ΔTM of RCT | 
2 | 42 µM | Nc1ncnc2c1ncn2[C@@H]1O[C@H](COP(=O)(O)OP(=O)(O)OP(=O)(O)O)[C@@H](O)[C@H]1O [ATP] | Addition of either ADP or ATP yielded a concentration-dependent increase in the ΔTM of RCT | KEA3 was detected on three of four different types of ATP-linked agarose beads
3 | 38 µM | NC(=O)C1=CN([C@@H]2O[C@H](COP(=O)(O)OP(=O)(O)OC[C@H]3O[C@@H](n4cnc5c(N)ncnc54)[C@H](OP(=O)(O)O)[C@@H]3O)[C@@H](O)[C@H]2O)C=CC1 [NADPH] |  | 
4 | 8 µM | NC(=O)c1ccc[n+]([C@@H]2O[C@H](COP(=O)(O)OP(=O)(O)OC[C@H]3O[C@@H](n4cnc5c(N)ncnc54)[C@H](OP(=O)(O)O)[C@@H]3O)[C@@H](O)[C@H]2O)c1 [NADP^+] |  | 
